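Cultured in 96-well plates, cells were exposed to test compound for 48 hours across five concentrations. GI50 is the concentration that inhibits growth by half.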 Active and inactive are the calls of the source. Cut-off read from the data, not from the text of the source: active = GI50 up to about 1.1 µM and inactive = higher.
Experiments:
Experiment in all cases: NCI-60 cell line screen, 48 h
IGROV-1 = tested on: IGROV-1
SK-OV-3 = tested on: SK-OV-3
CAKI-1 = tested on: CAKI-1
SNB-75 = tested on: SNB-75
OVCAR-3 = tested on: OVCAR-3
HL-60 = tested on: HL-60
KM12 = tested on: KM12
PC-3 = tested on: PC-3
MDA-MB-231 = tested on: MDA-MB-231
SK-MEL-2 = tested on: SK-MEL-2
EKVX = tested on: EKVX
HCT-116 = tested on: HCT-116
T47D = tested on: T47D
MDA-MB-435 = tested on: MDA-MB-435
BT-549 = tested on: BT-549
TK-10 = tested on: TK-10
SF-268 = tested on: SF-268
NCI-H522 = tested on: NCI-H522
UACC-62 = tested on: UACC-62
KM-20L2 = tested on: KM-20L2

Compound | GI50 (IGROV-1) | GI50 (SK-OV-3) | GI50 (CAKI-1) | GI50 (SNB-75) | GI50 (OVCAR-3) | GI50 (HL-60) | GI50 (KM12) | GI50 (PC-3) | GI50 (MDA-MB-231) | GI50 (SK-MEL-2) | GI50 (EKVX) | GI50 (HCT-116) | GI50 (T47D) | GI50 (MDA-MB-435) | GI50 (BT-549) | GI50 (TK-10) | GI50 (SF-268) | GI50 (NCI-H522) | GI50 (UACC-62) | GI50 (KM-20L2)
Cc1sc2[nH]c(=O)oc(=O)c2c1C | > 75.3 µM (inactive) | > 100 µM (inactive) | 35.8 µM (inactive) | > 55.8 µM (inactive) | 55 µM (inactive) | 37 µM (inactive) | 34.9 µM (inactive) | > 100 µM (inactive) | > 70.8 µM (inactive) | 37.7 µM (inactive) | > 100 µM (inactive) | > 100 µM (inactive) | > 86.5 µM (inactive) | 39.9 µM (inactive) | 22.9 µM (inactive) | > 100 µM (inactive) | 53.8 µM (inactive) | 26 µM (inactive) | 52.1 µM (inactive) | 
NNC(=O)C(=O)N/N=C1\CCCC1C(=O)CCC(=O)Nc1cccc(Cl)c1 (stereo unspecified) | > 100 µM (inactive) |  |  | > 100 µM (inactive) | > 100 µM (inactive) | > 100 µM (inactive) | > 100 µM (inactive) |  |  | > 100 µM (inactive) | > 100 µM (inactive) | > 100 µM (inactive) |  |  |  | > 100 µM (inactive) | > 100 µM (inactive) |  | > 100 µM (inactive) | > 100 µM (inactive)
O=C(O)C1C(C(=O)O)C2C(=O)C=CC1N2Cc1ccccc1 (stereo unspecified) | 6.5 µM (inactive) | 5.35 µM (inactive) | 3.94 µM (inactive) | 2.65 µM (inactive) | 2.87 µM (inactive) | 1.77 µM (inactive) | 3.61 µM (inactive) | 5.58 µM (inactive) | 3.16 µM (inactive) | 8.51 µM (inactive) | 3.06 µM (inactive) | 3.68 µM (inactive) | 3.46 µM (inactive) | 3.66 µM (inactive) | 4.57 µM (inactive) | 2.84 µM (inactive) | 3.24 µM (inactive) | 1.87 µM (inactive) | 7.96 µM (inactive) | 
C/C(=N\[N+](C)(C)C)C(c1ccccc1)C1(c2ccccc2)C(c2ccccc2)=C1c1ccccc1 (stereo unspecified) | > 100 µM (inactive) | > 100 µM (inactive) | > 100 µM (inactive) |  | > 100 µM (inactive) | > 100 µM (inactive) | > 100 µM (inactive) |  |  | > 100 µM (inactive) | 40.7 µM (inactive) | > 100 µM (inactive) |  |  |  | 90.2 µM (inactive) |  | > 100 µM (inactive) | > 100 µM (inactive) | > 100 µM (inactive)
OCCOCCO[P+]1(OCCOCCO)n2c3ccc2C(c2ccccc2)=C2C=CC(=N2)C(c2ccccc2)=c2ccc(n21)=C(c1ccccc1)C1=NC(=C3c2ccccc2)C=C1 | 0.0261 µM (active) | 0.0859 µM (active) | 1.68 µM (inactive) | 0.0491 µM (active) | 0.033 µM (active) | 0.0235 µM (active) | 0.0331 µM (active) | 0.107 µM (active) | 0.0736 µM (active) | 0.0395 µM (active) | 0.32 µM (active) | 0.0836 µM (active) | 0.04 µM (active) | 0.0316 µM (active) | 0.0385 µM (active) | 0.426 µM (active) | 0.0618 µM (active) | 0.186 µM (active) | 0.0618 µM (active) | 
Cc1oc2c(C)c3oc(=O)cc(C)c3cc2c1CNC(=O)[C@@H]1OCCOCCOCCOCCOCCOC1C(=O)O (stereo partly specified) | > 100 µM (inactive) | > 100 µM (inactive) | > 100 µM (inactive) | > 100 µM (inactive) | > 100 µM (inactive) | > 100 µM (inactive) | > 100 µM (inactive) |  |  |  | > 100 µM (inactive) | > 100 µM (inactive) |  |  |  | > 100 µM (inactive) | > 100 µM (inactive) | > 100 µM (inactive) | > 100 µM (inactive) | > 100 µM (inactive)

Reference: ChEMBL document CHEMBL1201862, “PubChem BioAssay data set” (2004)
